The NIST ThermoML archive (doi:10.1016/j.jct.2007.03.010)

Test: excess molar enthalpy (molar enthalpy of mixing); xn = mol fraction of the nth substance listed
Conditions: 101 kPa, Liquid, Calvet calorimetry

CC(O)CN (stereo not drawn) [1-amino-2-propanol] + O
Conditions | excess molar enthalpy [kcal/mol]
298.15 K, x1 = 0.03 | -0.119
298.15 K, x1 = 0.0501 | -0.186
298.15 K, x1 = 0.0697 | -0.241
298.15 K, x1 = 0.1002 | -0.324
298.15 K, x1 = 0.1505 | -0.419
298.15 K, x1 = 0.2012 | -0.488
298.15 K, x1 = 0.2994 | -0.572
298.15 K, x1 = 0.3496 | -0.593
298.15 K, x1 = 0.3993 | -0.592
298.15 K, x1 = 0.4465 | -0.579
298.15 K, x1 = 0.494 | -0.554
298.15 K, x1 = 0.6033 | -0.481
298.15 K, x1 = 0.7155 | -0.365
298.15 K, x1 = 0.7954 | -0.27
298.15 K, x1 = 0.8847 | -0.173
313.15 K, x1 = 0.0304 | -0.134
313.15 K, x1 = 0.0701 | -0.253
313.15 K, x1 = 0.1001 | -0.326
313.15 K, x1 = 0.15 | -0.421
313.15 K, x1 = 0.1999 | -0.491
313.15 K, x1 = 0.3021 | -0.584
313.15 K, x1 = 0.352 | -0.601
313.15 K, x1 = 0.4015 | -0.598
313.15 K, x1 = 0.5022 | -0.556
313.15 K, x1 = 0.591 | -0.487
313.15 K, x1 = 0.692 | -0.392
313.15 K, x1 = 0.7864 | -0.283
313.15 K, x1 = 0.8808 | -0.174
323.15 K, x1 = 0.0301 | -0.114
323.15 K, x1 = 0.05 | -0.171
323.15 K, x1 = 0.0705 | -0.244
323.15 K, x1 = 0.0999 | -0.308
323.15 K, x1 = 0.1507 | -0.401
323.15 K, x1 = 0.1993 | -0.473
323.15 K, x1 = 0.2999 | -0.551
323.15 K, x1 = 0.3533 | -0.577
323.15 K, x1 = 0.4045 | -0.587
323.15 K, x1 = 0.507 | -0.554
323.15 K, x1 = 0.5849 | -0.497
323.15 K, x1 = 0.6741 | -0.42
323.15 K, x1 = 0.8125 | -0.261
323.15 K, x1 = 0.9073 | -0.144

OCCNCCO [diethanolamine] + O
298.15 K
Conditions | excess molar enthalpy [kcal/mol]
x1 = 0.0553 | -0.164
x1 = 0.0732 | -0.214
x1 = 0.1001 | -0.273
x1 = 0.2005 | -0.425
x1 = 0.2943 | -0.497
x1 = 0.34 | -0.51
x1 = 0.4007 | -0.498
x1 = 0.4969 | -0.458
x1 = 0.5945 | -0.385
x1 = 0.6597 | -0.332
x1 = 0.7421 | -0.261
x1 = 0.8312 | -0.172
x1 = 0.9283 | -0.0722

NCCCO [3-amino-1-propanol] + O
Conditions | excess molar enthalpy [kcal/mol]
298.15 K, x1 = 0.0299 | -0.0966
298.15 K, x1 = 0.0705 | -0.222
298.15 K, x1 = 0.1203 | -0.364
298.15 K, x1 = 0.2 | -0.509
298.15 K, x1 = 0.2982 | -0.598
298.15 K, x1 = 0.3452 | -0.62
298.15 K, x1 = 0.4067 | -0.625
298.15 K, x1 = 0.4989 | -0.588
298.15 K, x1 = 0.593 | -0.519
298.15 K, x1 = 0.7515 | -0.366
298.15 K, x1 = 0.8969 | -0.17
313.15 K, x1 = 0.0297 | -0.115
313.15 K, x1 = 0.0702 | -0.245
313.15 K, x1 = 0.12 | -0.375
313.15 K, x1 = 0.2007 | -0.504
313.15 K, x1 = 0.3015 | -0.607
313.15 K, x1 = 0.3458 | -0.629
313.15 K, x1 = 0.3982 | -0.633
313.15 K, x1 = 0.5034 | -0.597
313.15 K, x1 = 0.6045 | -0.508
313.15 K, x1 = 0.7564 | -0.329
313.15 K, x1 = 0.9333 | -0.115
323.15 K, x1 = 0.0298 | -0.154
323.15 K, x1 = 0.0718 | -0.29
323.15 K, x1 = 0.1192 | -0.397
323.15 K, x1 = 0.1996 | -0.512
323.15 K, x1 = 0.3018 | -0.608
323.15 K, x1 = 0.3493 | -0.632
323.15 K, x1 = 0.3947 | -0.637
323.15 K, x1 = 0.5038 | -0.597
323.15 K, x1 = 0.605 | -0.517
323.15 K, x1 = 0.7594 | -0.34
323.15 K, x1 = 0.8801 | -0.18

NCCNCCO [N-(2-aminoethyl)ethanolamine] + O
Conditions | excess molar enthalpy [kcal/mol]
298.15 K, x1 = 0.0298 | -0.184
298.15 K, x1 = 0.0496 | -0.304
298.15 K, x1 = 0.0699 | -0.409
298.15 K, x1 = 0.0992 | -0.536
298.15 K, x1 = 0.1503 | -0.717
298.15 K, x1 = 0.2015 | -0.824
298.15 K, x1 = 0.2962 | -0.934
298.15 K, x1 = 0.2982 | -0.936
298.15 K, x1 = 0.3484 | -0.958
298.15 K, x1 = 0.3994 | -0.945
298.15 K, x1 = 0.4454 | -0.901
298.15 K, x1 = 0.4962 | -0.834
298.15 K, x1 = 0.505 | -0.821
298.15 K, x1 = 0.5922 | -0.685
298.15 K, x1 = 0.6969 | -0.524
298.15 K, x1 = 0.77 | -0.409
298.15 K, x1 = 0.9077 | -0.186
313.15 K, x1 = 0.0299 | -0.224
313.15 K, x1 = 0.0498 | -0.315
313.15 K, x1 = 0.0701 | -0.411
313.15 K, x1 = 0.1 | -0.559
313.15 K, x1 = 0.1495 | -0.729
313.15 K, x1 = 0.2002 | -0.865
313.15 K, x1 = 0.2956 | -0.984
313.15 K, x1 = 0.3547 | -1.01
313.15 K, x1 = 0.4001 | -0.992
313.15 K, x1 = 0.4461 | -0.95
313.15 K, x1 = 0.4893 | -0.904
313.15 K, x1 = 0.6009 | -0.752
313.15 K, x1 = 0.6723 | -0.638
313.15 K, x1 = 0.7961 | -0.41
313.15 K, x1 = 0.9041 | -0.212
323.15 K, x1 = 0.0301 | -0.147
323.15 K, x1 = 0.0498 | -0.246
323.15 K, x1 = 0.0697 | -0.381
323.15 K, x1 = 0.0992 | -0.487
323.15 K, x1 = 0.1491 | -0.697
323.15 K, x1 = 0.1988 | -0.816
323.15 K, x1 = 0.3014 | -0.912
323.15 K, x1 = 0.3527 | -0.941
323.15 K, x1 = 0.3958 | -0.936
323.15 K, x1 = 0.4971 | -0.86
323.15 K, x1 = 0.5908 | -0.723
323.15 K, x1 = 0.7056 | -0.536
323.15 K, x1 = 0.7484 | -0.463
323.15 K, x1 = 0.8999 | -0.196

CN(C)CCO [2-(N,N-dimethylamino)ethanol] + O
Conditions | excess molar enthalpy [kcal/mol]
298.15 K, x1 = 0.0299 | -0.168
298.15 K, x1 = 0.0705 | -0.347
298.15 K, x1 = 0.1008 | -0.443
298.15 K, x1 = 0.1501 | -0.545
298.15 K, x1 = 0.2052 | -0.618
298.15 K, x1 = 0.301 | -0.68
298.15 K, x1 = 0.349 | -0.692
298.15 K, x1 = 0.4106 | -0.69
298.15 K, x1 = 0.4544 | -0.673
298.15 K, x1 = 0.5365 | -0.615
298.15 K, x1 = 0.6599 | -0.48
298.15 K, x1 = 0.7996 | -0.298
298.15 K, x1 = 0.9156 | -0.133
313.15 K, x1 = 0.0307 | -0.168
313.15 K, x1 = 0.0695 | -0.314
313.15 K, x1 = 0.1196 | -0.46
313.15 K, x1 = 0.2038 | -0.584
313.15 K, x1 = 0.2979 | -0.652
313.15 K, x1 = 0.349 | -0.665
313.15 K, x1 = 0.4063 | -0.663
313.15 K, x1 = 0.4925 | -0.618
313.15 K, x1 = 0.5885 | -0.526
313.15 K, x1 = 0.7046 | -0.403
313.15 K, x1 = 0.7891 | -0.295
313.15 K, x1 = 0.9076 | -0.145
323.15 K, x1 = 0.0301 | -0.158
323.15 K, x1 = 0.0705 | -0.315
323.15 K, x1 = 0.1217 | -0.436
323.15 K, x1 = 0.2027 | -0.556
323.15 K, x1 = 0.3001 | -0.629
323.15 K, x1 = 0.3486 | -0.643
323.15 K, x1 = 0.4001 | -0.641
323.15 K, x1 = 0.4995 | -0.597
323.15 K, x1 = 0.6093 | -0.489
323.15 K, x1 = 0.7618 | -0.309
323.15 K, x1 = 0.9197 | -0.111

CNCCO [2-(methylamino)ethanol] + O
Conditions | excess molar enthalpy [kcal/mol]
298.15 K, x1 = 0.0302 | -0.127
298.15 K, x1 = 0.0514 | -0.216
298.15 K, x1 = 0.0695 | -0.278
298.15 K, x1 = 0.1002 | -0.354
298.15 K, x1 = 0.1485 | -0.459
298.15 K, x1 = 0.1992 | -0.536
298.15 K, x1 = 0.3021 | -0.638
298.15 K, x1 = 0.3471 | -0.657
298.15 K, x1 = 0.3996 | -0.653
298.15 K, x1 = 0.4471 | -0.637
298.15 K, x1 = 0.5017 | -0.599
298.15 K, x1 = 0.5992 | -0.513
298.15 K, x1 = 0.696 | -0.408
298.15 K, x1 = 0.7988 | -0.291
298.15 K, x1 = 0.8939 | -0.164
313.15 K, x1 = 0.031 | -0.128
313.15 K, x1 = 0.05 | -0.216
313.15 K, x1 = 0.0704 | -0.283
313.15 K, x1 = 0.1011 | -0.38
313.15 K, x1 = 0.1488 | -0.475
313.15 K, x1 = 0.2003 | -0.55
313.15 K, x1 = 0.2983 | -0.631
313.15 K, x1 = 0.3491 | -0.64
313.15 K, x1 = 0.3986 | -0.638
313.15 K, x1 = 0.5035 | -0.601
313.15 K, x1 = 0.5833 | -0.547
313.15 K, x1 = 0.686 | -0.459
313.15 K, x1 = 0.8053 | -0.305
313.15 K, x1 = 0.8956 | -0.162
323.15 K, x1 = 0.0299 | -0.177
323.15 K, x1 = 0.0501 | -0.266
323.15 K, x1 = 0.07 | -0.325
323.15 K, x1 = 0.1008 | -0.396
323.15 K, x1 = 0.1504 | -0.472
323.15 K, x1 = 0.2004 | -0.531
323.15 K, x1 = 0.2985 | -0.614
323.15 K, x1 = 0.3492 | -0.631
323.15 K, x1 = 0.4023 | -0.633
323.15 K, x1 = 0.5108 | -0.592
323.15 K, x1 = 0.6095 | -0.512
323.15 K, x1 = 0.6956 | -0.414
323.15 K, x1 = 0.8039 | -0.279
323.15 K, x1 = 0.8815 | -0.179

CN(CCO)CCO [N-methyldiethanolamine] + O
313.15 K
Conditions | excess molar enthalpy [kcal/mol]
x1 = 0.1004 | -0.337
x1 = 0.1501 | -0.431
x1 = 0.1986 | -0.496
x1 = 0.2593 | -0.543
x1 = 0.3681 | -0.552
x1 = 0.4312 | -0.535
x1 = 0.4941 | -0.495
x1 = 0.593 | -0.417
x1 = 0.7778 | -0.25
x1 = 0.8203 | -0.208
